Source: a melting point compilation (Tetko et al.; mined from patent text by program, amines drawn as free bases though some values may be those of a salt)

| melting point [°C] | SMILES |
| --- | --- |
| 95.4 | CC(=O)Nc1ccc2ccccc2c1-c1c(P(=O)(c2ccccc2)c2ccccc2)ccc2ccccc12 |
| 81.6 to 82.4 | C[C@H]1CCCC(C)(C)[C@@H]1C(=O)c1ccc(C#N)c(C(F)(F)F)c1 |
| 159 | COC=C(C#N)C(=O)c1cc(F)c(Cl)cc1Cl |
| 169 to 171 | CCCCCC(=O)c1c[nH]c2c(OC)cccc2c1=O |
| 172 to 175 | NCCCNC(=O)CCn1cnc2c(=O)[nH]cnc21 |
| 76 to 78 | CC1(C)COC1(Cn1cncn1)c1ccc(F)cc1F (stereo unspecified) |
| 145 to 146 | O=C1NC(SCC#CCc2ccccc2)C1NC(c1ccccc1)(c1ccccc1)c1ccccc1 (stereo unspecified) |
| 80 | CCCCc1c(C(=O)c2ccc(OCCCN(CCCC)CCCC)cc2)[nH]c2ccc([N+](=O)[O-])cc12 |
| 134 to 135 | CC(=O)c1ccc(-c2ccc3c(ccn3Cc3ccccc3)c2)cc1 |
| 165 to 169 | Cc1cc(=O)c2ccc(N)cc2s1 |
| 145 to 146 | CNC(=O)c1ccccc1-c1nc(-c2ccccc2)no1 |
| 147 | CCOC(=O)NN=C(CC)c1ccncc1 |
| 140 | COc1cc(O)c(C(=O)C=Cc2cccn2C)c(OC)c1 |
| 148 to 149 | CCOCC1Cc2cc(S(N)(=O)=O)c(Cl)c(Cl)c2O1 (stereo unspecified) |
| 98 to 101 | Cc1cc(-c2cccs2)nc(Nc2ccc(C(C)C)cc2Br)n1 |
| 171 to 178 | CCCCCCCCCCCCCCNC(=O)c1cc(N)cc(C(=O)NCCCCCCCCCCCCCC)c1 |
| 135 | COc1ccc(-n2nc(C(F)F)cc2-c2ccc(S(C)(=O)=O)cc2)cc1 |
| 155 to 156 | CC(=O)N(O)Cc1ccccc1Nc1c(Cl)ccc(C)c1Cl |
| 170 to 171 | CNC(=O)n1c(N=Cc2ccc([N+](=O)[O-])o2)nc2ccccc21 |
| 228 to 230 | COc1cccc(CNC(=O)c2nc3scc(COc4ccc(CC(=O)O)cc4)c3c(=O)[nH]2)c1 |
| 132 to 133 | N#Cc1ccc(OCc2ccncc2)cc1F |
| 61 to 63 | ONCC1CCCCC1 |
| 145 to 147 | Cc1cccc(NC(=O)NCC2(c3ccccc3)CCCCC2)c1 |
| 172 | CC(C)(C)c1cc(C(C)(CC(=O)NN)c2cc(C(C)(C)C)c(O)c(C(C)(C)C)c2)cc(C(C)(C)C)c1O |
| 217 to 219 | CC[C@@H]1CN(c2c(F)c(N)c3c(=O)c(C(=O)O)cn(C4CC4)c3c2OC)CC[C@H]1O (relative stereo) |

| melting point [°C] | SMILES |
| --- | --- |
| 171 to 173 | O=C(OC1CCCCC1)c1ccc(Nc2nc(Nc3ccc(C(=O)OC4CCCCC4)cc3)nc(Nc3ccc(C(=O)OC4CCCCC4)cc3)n2)cc1 |
| 89 to 90 | CCCCCCC(=N)NC(=S)Nc1ccc(Cl)c(Cl)c1 |
| 166 to 167 | CCN1OCCC(=Cc2cc(C(C)(C)C)c(O)c(C(C)(C)C)c2)C1=O |
| 197 to 198 | OCC(=C(c1ccc(F)cc1)c1ccc(F)cc1)n1nnnc1-c1ccccc1 |
| 151 to 155 | COc1ccc2c(c1)OCC(n1ccnc1)C2=O (stereo unspecified) |
| 114 to 115 | N#Cc1[nH]ccc1-c1ccc(Cl)cc1 |
| 52 to 53 | CCc1ncc(CCCOc2c(C)cc(C#N)cc2C)s1 |
| 230 to 234 | NC(=O)c1ncn2c(-c3cc(Cl)ccc3Cl)ccnc12 |
| 103 to 105 | COCCN1CCN(CC2CCN(c3ccc(Cl)cc3)C2=O)CC1 (stereo unspecified) |
| 124 to 126 | COc1ccc(S(=O)(=O)N(CCC(F)(F)F)c2ccccc2/C=C/c2ccncc2)cc1 |
| 167 to 168 | CC1(C)C(=O)C(C)(C)c2cc3[nH]c(SCc4ccccn4)nc3cc21 |
| 178 to 181 | CC(=O)OCN1C(=O)CN(CCN2CC(=O)N(COC(C)=O)C(=O)C2)CC1=O |
| 155 to 160 | CCCCc1nc(Cl)c(/C=C(\Cc2ccccc2)C(=O)O)n1Cc1ccc(-c2c(O)c(=O)c2=O)cc1 |
| 192 to 194 | Cc1nnc(NC2CCCCC2)s1 |
| 213 | CCCOc1ccccc1-c1[nH]c(=O)c(C#N)cc1C |
| 115 to 116 | COc1ccc(C2(C#N)CCC(=C3SCCCS3)CC2)cc1OC1CCCC1 (stereo unspecified) |
| 184 to 185 | CCCCn1c(CO)nc2c(Cl)nc3ccccc3c21 |
| 95 to 96 | CN(CCCCCC(=O)O)c1ccc(Br)cc1C=O |
| > 250 | CC(C)n1nc(-c2cc(C(N)=O)c(=O)[nH]c2-c2ccccc2)ccc1=O |
| 243 to 245 | COC1CC2C3CCC4=CC(=O)CCC4(C)C3(F)C(O)CC2(C)C1(OC(C)=O)C(=O)CCl (stereo unspecified) |
| 130 to 131 | CC(C)(C)OC(=O)N1CCC(COc2ccc([N+](=O)[O-])cc2)CC1 |
| > 300 | Cc1cc(C)c(C)c(-c2cc3cnc(N)nc3nc2NC(=O)NC(C)(C)C)c1C |
| 175 to 177 | C=NC(c1cccc(Nc2n[nH]c3ncnc(Nc4cccc(Cl)c4)c23)c1)N(C)C (stereo unspecified) |
| 187 to 188 | CCCn1nc2c(N)nc3ccccc3c2c1CCNS(C)(=O)=O |
| 190 to 192 | O=[N+]([O-])c1cc[nH]c1-c1ccccc1 |

| melting point [°C] | SMILES |
| --- | --- |
| 157 to 158 | CCOC(=O)C(C)c1ccc(N[C@@H](CCC(N)=O)C(=O)O)cc1 (stereo partly specified) |
| 164 to 166 | CC(C)c1cc(C(C)C)c(CC(=O)NS(=O)(=O)Oc2c(C(C)C)cc(NS(C)(=O)=O)cc2C(C)C)c(C(C)C)c1 |
| 26 to 27 | CC(C)(CNCCCCCCNCC(C)(C)[N+](=O)[O-])[N+](=O)[O-] |
| 195 to 196 | CCN(CC)c1ccc2nc3c4ccccc4c(=Nc4cc(C)on4)cc-3oc2c1 |
| 198 to 201 | O=C(O)c1cn([C@@H]2C[C@@H]2F)c2c(Cl)c(Cl)ccc2c1=O |
| 88 | COc1ccc(C(F)(F)F)cc1C(=O)c1ccc(C#N)cc1 |
| 77 to 78 | CCOC(=O)C1=C(COCCCN(C)C)NC(C)=C(C(=O)OC)C1c1ccccc1Cl (stereo unspecified) |
| 257 to 259 | Cc1cc2c3c(cc(C)c2[nH]c1=O)CC(C)(CBr)O3 (stereo unspecified) |
| 121 to 123 | OCC=Cc1ccc(-c2ccc(OC(F)(F)F)cc2)cc1 |
| 200 to 201 | CCOC(=O)c1cc2cc3c(cc2oc1=O)OCO3 |
| 110 to 120 | Cc1nc2c(N)nc3ccccc3c2n1CCCCCNC(=O)c1ccccc1 |
| 247 to 248 | COC(=O)c1[nH]c2cc(C)c(C)cc2c1-c1ccc(O)cc1 |
| 204 to 213 | CNC1CN(c2c(F)c(N)c3c(=O)c(C(=O)O)cn(-c4nc(N)c(F)cc4F)c3c2Cl)C1 |
| 266 | O=Cc1cccc(-c2cnc3cnc(-c4ccc(O)cc4)nc3c2)c1 |
| 105 to 106 | CCOC(=O)/C=C(/c1ccc(OC)cc1)c1cccc(C#N)c1 |
| 99 to 100 | Cc1oc(-c2ccccc2)nc1CCc1ccc(C=CC=O)cc1 |
| 66 to 69 | CCCCCCCc1cc2cc(C(=O)OCC)ccc2[nH]1 |
| 148 to 150 | CC(=Cc1ccccc1)c1ccc2c(c1)S(=O)(=O)CCC2(C)C |
| 166 to 168 | N#CCc1ccc2oc([N+](=O)[O-])c(-c3ccccc3)c2c1 |
| 166 to 167 | CCCCCCCCN(C(=O)Nc1ccc(C(=O)O)cc1)c1ccc2c(c1)C(C)(C)CCC2(C)C |
| 147 to 148 | [N-]=[N+]=NCCOc1ccc(F)c2c1CC(=O)N2 |
| 164 to 165 | CC(C)(C)C1=CC(=C(C#N)C#N)C=C(c2cccs2)S1(=O)=O |
| 111 to 113 | C=CCCOc1ccc(CCCOC(=O)NS(=O)(=O)NCCOC(C)C)c(Oc2ncc(C(F)(F)F)cc2Cl)c1 |
| 136 to 137 | CC(=O)N(C)Cc1ccc2c(c1)C(Cc1ccnc(F)c1)(Cc1ccnc(F)c1)c1ccccc1-2 |
| 318 to 321 | COc1cc2c3nn(-c4ccc(Cl)cc4)c(=O)c-3c[nH]c2c(OC)n1 |

| melting point [°C] | SMILES |
| --- | --- |
| 128 to 129 | COn1c(C)nc2c(NCc3c(C)cccc3C)cc(C(=O)N(C)C)cc21 |
| 220 to 221 | COC(=O)c1cc(NC(C)=O)cc(NC(C)=O)c1 |
| 154 to 156 | COc1ccc(N2CCN(c3c(C)c(C)c4c(c3C)CC(C)(C)O4)CC2)c(OC)c1 |
| 155 | CS(=O)(=O)c1ccccc1C(=O)C(C#N)C(=O)C1CC1 (stereo unspecified) |
| 83 to 84 | CC(=O)NC(Cc1csc2ccccc12)C(=O)CCc1cc(C(F)(F)F)cc(C(F)(F)F)c1 (stereo unspecified) |
| 97 to 120 | CN(C(=O)N(C)n1cnc2ccccc2c1=O)c1ccc(Cl)cc1 |
| 165 to 166 | CCN1C(=O)C(=C2Oc3ccccc3N2CC)SC1=S |
| 96 to 98 | CC(Cl)=CCOc1ccc(C(=O)O)nc1 |
| 96 to 98 | C=CCC(NC(=O)CC)C(=O)O (stereo unspecified) |
| 109 to 112 | Cc1ccccc1OCC(O)CN(CCOc1ncccc1C(N)=O)Cc1ccccc1 (stereo unspecified) |
| 339 to 343 | O=C(O)C(=O)c1ccc(-c2ccc(Cl)cc2)s1 |
| 215 to 216 | COC(=O)C1c2c(C)c(OC(=O)c3ccc([N+](=O)[O-])cc3)c(C)c(C)c2OC1(C)C (stereo unspecified) |
| 160 to 161 | CCCc1nc2c(N)nc3ccccc3c2n1CCOCCCS(=O)(=O)c1ccccc1 |
| 165 | NC1=C(c2cccc(C(F)(F)F)c2)C(=O)OC1 |
| 157 to 158 | Cc1ccc2c(Cl)cc(Cl)c(OCC#N)c2n1 |
| 149 to 152 | O=C(O)CCCc1cccc(NC(=O)[C@@H](CS)Cc2ccccc2)c1 |
| 348 to 350 | O=c1[nH]nc2c3cccc(Cl)c3[nH]c(=O)n12 |
| 219 to 221 | CCCc1nn(C)c(C(N)=O)c1NC(=O)c1cc2cccc(OCC)c2o1 |
| 232 to 234 | CN(C)CCn1c(=O)c(=NO)nc(-c2ccccc2)c2ccccc21 |
| 237 to 240 | O=[N+]([O-])c1cc(O)ccc1/C=C/c1ccc(O)cc1 |
| 115 to 116 | CCOC(=O)C(Cc1ccccc1)C(=O)Nc1ccc(CP(=O)(OCC)OCC)cc1 (stereo unspecified) |
| 192 to 193 | CC(C)(C)CC(NC(=O)c1ccc(C(F)(F)F)cc1)NC(=NS(=O)(=O)C(F)(F)F)Nc1cccnc1 (stereo unspecified) |
| 105 to 106 | CCn1c(C(=O)N(C)Cc2cc(C(F)(F)F)cc(C(F)(F)F)c2)c(-c2ccccc2)c2ccccc2c1=O |
| 94 to 96 | CCOC(=O)C(=NOC)C1=CSCCN1C=O |

| SMILES | melting point [°C] |
| --- | --- |
| O=C1c2c(Cl)cccc2-n2cnc(-c3nnco3)c2[C@@H]2CCCN12 | 229 to 230 |
| CCCC1NCCc2ccc(NC(=N)c3cccs3)cc21 (stereo unspecified) | 127 to 128 |
